From PubChem BioAssay (NCI)
“And” between values parts separate entries of the source, which are not always exact repeats. Equal entries are not always repeated.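 Tested at 5 concentrations; 48 h exposure; 96-well plates; endpoints linearly interpolated, else capped at highest concentration. GI50 is the concentration that inhibits growth by half. The concentration for full growth arrest is given as TGI.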

These compounds were tested on SNB-19 CNS (assay: NCI-60 cell line screen, 48 h).

SMILES	TGI	GI50
COC(=O)c1ccccc1NC(=O)C(=O)Cc1nc2c3c(ccc2[nH]c1=O)C(=O)c1ccccc1C3=O	> 100 µM	–
COc1cc2cc(OC)c3cc4c(cc3c2c(OC)c1OC)OCO4	> 100 µM	–
O=C(CC(=O)c1cccc2ccccc12)C(=O)Nc1ccc(Cl)cc1	> 100 µM	–
OCc1cc2ccccc2c2c3c(ccc12)OCO3	286 µM	35.6 µM
CCCCCCCCCCCCCC(=O)OC(/C=C/C(C)C)C(O)C(O)C(OC)C(=O)NC1CCCCN(C)C1=O (stereo not given)	6.46 µM and > 49 µM	> 49 µM
CC1(C(=O)O)CCC[C@@]2(C)C1CC[C@@]1(C)c3cocc3CCC21 (stereo not given in full)	> 100 µM	–
C[C@@H](Oc1cc(-n2cnc3ccc(CN4CCN(C)CC4)cc32)sc1C(N)=O)c1ccccc1C(F)(F)F	15.4 µM and > 10 µM	0.0233 µM and 0.0162 µM
CCN(CC)CCSc1c2ccccc2nc2cc(NCC(=O)Nc3ccccc3-c3ccccc3NC(=O)CNc3ccc4c(SCCN(CC)CC)c5ccccc5nc4c3)ccc12	> 100 µM	–
Cc1ccsc1C(=S)Nc1ccc(Cl)c(/C=N/OC(C)(C)C)c1	> 100 µM	–
CC(C)=CCC\C(C)=C/C=C/C(C)=C\C=C\C(C)=C/C=C/C=C(C)\C=C\C=C(C)/C=C/C=C(/C)CCC=C(C)C	> 100 µM	–
CC1(C)C(=O)/C=C\C(=O)C(C)(C)C2=CC=C(O2)C(C)(C)C(=O)/C=C\C(=O)C(C)(C)C2=CC=C1O2	> 100 µM	–
NC(=O)NO.O.O.O.O.O.O.O.O.O.O.O.[Ge].[Ge].[Ge].[Ge].[Ge].[O]=[Ge].[O]=[Ge].[O]=[Ge].[O]=[Ge].[O]=[Ge][OH]	> 100 µM	–
CN(C)C(=S)N=C(Nc1ccccc1)Nc1ccccc1	> 100 µM	–
NC(N)=NS(=O)(=O)c1ccc(Nc2c3ccccc3nc3c(C(=O)NCCO)cccc23)cc1	–	26.6 µM
COc1cccc(C2c3cc4c(cc3OC(C)(N3CCCC3)C2C)OCO4)c1O (stereo not given)	> 100 µM	–
COC(=O)CC[N+]1=CCC(c2ccccc2)(c2ccccc2)O1	> 100 µM	–
O=C1NC(=NCCc2cccc(F)c2)S/C1=C\c1ccc2ncccc2c1	> 25 µM	14.1 µM
COc1cc(/C=N\NC(=O)CN2CCN(c3cc4c(cc3F)c(=O)c(C(=O)N/N=C/c3cc(OC)c(OC)c(OC)c3)cn4C3CC3)CC2)cc(OC)c1OC	> 100 µM	0.445 µM

Each compound was assayed on HCT-15 colon (assay: NCI-60 cell line screen, 48 h).

SMILES	TGI	GI50
COc1ccc(CC2c3cc4c(cc3CCN2C)OCO4)c(C=O)c1OC (stereo not given)	> 100 µM	–
CN1CCCCC1CCN1c2ccccc2Sc2ccc(Cl)cc21 (stereo not given)	11.7 µM	2.93 µM
C=C(C)C(OC)C(O)CC1(C)CC(O)CC(C)(C2CCC3OC(C4(C)CCC(Br)C(C)(C)O4)CCC3(C)O2)O1 (stereo not given)	> 68 µM	26.2 µM
O=C(Nc1nc2ccc([N+](=O)[O-])cc2s1)C(=O)C(C1OC(=O)c2ccccc21)[N+](=O)[O-] (stereo not given)	> 100 µM	–
Cc1cc(-c2nc(C(=O)Nc3cc4oc(N5CCOCC5)nc4nc3N3CC[C@@H](O)C3)co2)ccn1	> 100 µM	25.7 µM
COc1cc2c(cc1OCCCCN1CCN(CC(=O)Nc3ccc(Cl)cc3C(=O)c3ccccc3Cl)CC1)N=CC1CCCN1C2=O (stereo not given)	2.3 µM	0.923 µM
O=C(CCc1nc(=S)[nH][nH]1)Nc1ccc(Cl)c(Cl)c1	65.6 µM	–
COC(=O)C1(C(C)C)CCc2c(OC)ccc(OC)c2C1=O (stereo not given)	> 100 µM	–
Cc1ccc(Cl)c2c(N=Nc3ccccc3[N+](=O)[O-])c(O)[nH]c12	> 100 µM	–
FC(F)(F)c1cccc(Nc2nc(-c3ccccc3)nc3ncccc23)c1	23.7 µM	3.28 µM
O=C(Nc1ccccc1)c1c(O)[nH]c(=S)[nH]c1=O	72.2 µM and > 250 µM	84.3 µM
OC1CSSC1Cn1cnc2c(Nc3ccc(OCc4cccc(F)c4)c(Cl)c3)ncnc21 (stereo not given)	2.16 µM	0.767 µM
C=CCOc1ccc2c(C)cc(=O)oc2c1C	> 100 µM	–
Nc1c(C(=O)c2cccc(CCS(N)(=O)=O)c2)cnn1-c1ccc(F)cc1	> 25 µM	> 25 µM
COC(=O)c1ccccc1NC(=O)C(=O)Cc1nc2c3c(ccc2[nH]c1=O)C(=O)c1ccccc1C3=O	> 100 µM	–
COc1cc2cc(OC)c3cc4c(cc3c2c(OC)c1OC)OCO4	> 51.1 µM	–

SMILES	TGI	GI50
O=C(CC(=O)c1cccc2ccccc12)C(=O)Nc1ccc(Cl)cc1	> 100 µM	–
OCc1cc2ccccc2c2c3c(ccc12)OCO3	–	32.5 µM
CCCCCCCCCCCCCC(=O)OC(/C=C/C(C)C)C(O)C(O)C(OC)C(=O)NC1CCCCN(C)C1=O (stereo not given)	7.55 µM and > 49 µM	–
CC1(C(=O)O)CCC[C@@]2(C)C1CC[C@@]1(C)c3cocc3CCC21 (stereo not given in full)	> 100 µM	–
C[C@@H](Oc1cc(-n2cnc3ccc(CN4CCN(C)CC4)cc32)sc1C(N)=O)c1ccccc1C(F)(F)F	12.9 µM and > 10 µM	0.045 µM and 0.0432 µM
CCN(CC)CCSc1c2ccccc2nc2cc(NCC(=O)Nc3ccccc3-c3ccccc3NC(=O)CNc3ccc4c(SCCN(CC)CC)c5ccccc5nc4c3)ccc12	> 100 µM	–
Cc1ccsc1C(=S)Nc1ccc(Cl)c(/C=N/OC(C)(C)C)c1	> 100 µM	–
CC(C)=CCC\C(C)=C/C=C/C(C)=C\C=C\C(C)=C/C=C/C=C(C)\C=C\C=C(C)/C=C/C=C(/C)CCC=C(C)C	> 100 µM	–
CC1(C)C(=O)/C=C\C(=O)C(C)(C)C2=CC=C(O2)C(C)(C)C(=O)/C=C\C(=O)C(C)(C)C2=CC=C1O2	> 100 µM	–
NC(=O)NO.O.O.O.O.O.O.O.O.O.O.O.[Ge].[Ge].[Ge].[Ge].[Ge].[O]=[Ge].[O]=[Ge].[O]=[Ge].[O]=[Ge].[O]=[Ge][OH]	> 100 µM	–
CN(C)C(=S)N=C(Nc1ccccc1)Nc1ccccc1	> 100 µM	–
NC(N)=NS(=O)(=O)c1ccc(Nc2c3ccccc3nc3c(C(=O)NCCO)cccc23)cc1	–	32.2 µM
COc1cccc(C2c3cc4c(cc3OC(C)(N3CCCC3)C2C)OCO4)c1O (stereo not given)	29 µM	–
COC(=O)CC[N+]1=CCC(c2ccccc2)(c2ccccc2)O1	> 100 µM	–
O=C1NC(=NCCc2cccc(F)c2)S/C1=C\c1ccc2ncccc2c1	> 25 µM	0.77 µM
COc1cc(/C=N\NC(=O)CN2CCN(c3cc4c(cc3F)c(=O)c(C(=O)N/N=C/c3cc(OC)c(OC)c(OC)c3)cn4C3CC3)CC2)cc(OC)c1OC	> 100 µM	> 100 µM

Each compound was assayed on HCT-116 colon (assay: NCI-60 cell line screen, 48 h).

SMILES	TGI	GI50
COc1ccc(CC2c3cc4c(cc3CCN2C)OCO4)c(C=O)c1OC (stereo not given)	> 100 µM	–
CN1CCCCC1CCN1c2ccccc2Sc2ccc(Cl)cc21 (stereo not given)	6.72 µM	2.57 µM
C=C(C)C(OC)C(O)CC1(C)CC(O)CC(C)(C2CCC3OC(C4(C)CCC(Br)C(C)(C)O4)CCC3(C)O2)O1 (stereo not given)	51.7 µM	20.6 µM
O=C(Nc1nc2ccc([N+](=O)[O-])cc2s1)C(=O)C(C1OC(=O)c2ccccc21)[N+](=O)[O-] (stereo not given)	> 100 µM	–
Cc1cc(-c2nc(C(=O)Nc3cc4oc(N5CCOCC5)nc4nc3N3CC[C@@H](O)C3)co2)ccn1	> 100 µM	30.1 µM
COc1cc2c(cc1OCCCCN1CCN(CC(=O)Nc3ccc(Cl)cc3C(=O)c3ccccc3Cl)CC1)N=CC1CCCN1C2=O (stereo not given)	0.664 µM	0.225 µM
O=C(CCc1nc(=S)[nH][nH]1)Nc1ccc(Cl)c(Cl)c1	> 100 µM	–
COC(=O)C1(C(C)C)CCc2c(OC)ccc(OC)c2C1=O (stereo not given)	> 100 µM	–
Cc1ccc(Cl)c2c(N=Nc3ccccc3[N+](=O)[O-])c(O)[nH]c12	> 100 µM	–
FC(F)(F)c1cccc(Nc2nc(-c3ccccc3)nc3ncccc23)c1	13.7 µM	3.62 µM
O=C(Nc1ccccc1)c1c(O)[nH]c(=S)[nH]c1=O	111 µM and > 250 µM	58.6 µM
OC1CSSC1Cn1cnc2c(Nc3ccc(OCc4cccc(F)c4)c(Cl)c3)ncnc21 (stereo not given)	3.84 µM	0.687 µM
C=CCOc1ccc2c(C)cc(=O)oc2c1C	> 100 µM	–
Nc1c(C(=O)c2cccc(CCS(N)(=O)=O)c2)cnn1-c1ccc(F)cc1	> 25 µM	> 25 µM
COC(=O)c1ccccc1NC(=O)C(=O)Cc1nc2c3c(ccc2[nH]c1=O)C(=O)c1ccccc1C3=O	34.7 µM	–
COc1cc2cc(OC)c3cc4c(cc3c2c(OC)c1OC)OCO4	> 84.4 µM	–

SMILES	TGI	GI50
O=C(CC(=O)c1cccc2ccccc12)C(=O)Nc1ccc(Cl)cc1	> 100 µM	–
OCc1cc2ccccc2c2c3c(ccc12)OCO3	149 µM	30.6 µM
CCCCCCCCCCCCCC(=O)OC(/C=C/C(C)C)C(O)C(O)C(OC)C(=O)NC1CCCCN(C)C1=O (stereo not given)	5.46 µM and > 49 µM	> 49 µM
CC1(C(=O)O)CCC[C@@]2(C)C1CC[C@@]1(C)c3cocc3CCC21 (stereo not given in full)	> 100 µM	–
C[C@@H](Oc1cc(-n2cnc3ccc(CN4CCN(C)CC4)cc32)sc1C(N)=O)c1ccccc1C(F)(F)F	12.9 µM and > 10 µM	< 0.0125 µM and 0.0139 µM
CCN(CC)CCSc1c2ccccc2nc2cc(NCC(=O)Nc3ccccc3-c3ccccc3NC(=O)CNc3ccc4c(SCCN(CC)CC)c5ccccc5nc4c3)ccc12	> 100 µM	–
Cc1ccsc1C(=S)Nc1ccc(Cl)c(/C=N/OC(C)(C)C)c1	> 100 µM	–
CC(C)=CCC\C(C)=C/C=C/C(C)=C\C=C\C(C)=C/C=C/C=C(C)\C=C\C=C(C)/C=C/C=C(/C)CCC=C(C)C	> 100 µM	–
CC1(C)C(=O)/C=C\C(=O)C(C)(C)C2=CC=C(O2)C(C)(C)C(=O)/C=C\C(=O)C(C)(C)C2=CC=C1O2	> 100 µM	–
NC(=O)NO.O.O.O.O.O.O.O.O.O.O.O.[Ge].[Ge].[Ge].[Ge].[Ge].[O]=[Ge].[O]=[Ge].[O]=[Ge].[O]=[Ge].[O]=[Ge][OH]	> 100 µM	–
CN(C)C(=S)N=C(Nc1ccccc1)Nc1ccccc1	> 100 µM	–
NC(N)=NS(=O)(=O)c1ccc(Nc2c3ccccc3nc3c(C(=O)NCCO)cccc23)cc1	> 100 µM	21.9 µM
COc1cccc(C2c3cc4c(cc3OC(C)(N3CCCC3)C2C)OCO4)c1O (stereo not given)	47.9 µM	–
COC(=O)CC[N+]1=CCC(c2ccccc2)(c2ccccc2)O1	> 100 µM	–
O=C1NC(=NCCc2cccc(F)c2)S/C1=C\c1ccc2ncccc2c1	> 25 µM	1.3 µM
